Paper PMC6289163 (Tuberculosis (Edinburgh, Scotland), 2018)

Tested on: clinical MDR isolate (TB4001)
Format: cell-based, Mycobacterium tuberculosis

SMILES	resistance of TB4001
NNC(=O)c1ccncc1 [Isoniazid]	resistant
CO[C@H]1/C=C/O[C@@]2(C)Oc3c(C)c(O)c4c(O)c(c(/C=N/N5CCN(C)CC5)c(O)c4c3C2=O)NC(=O)/C(C)=C\C=C\[C@H](C)[C@H](O)[C@@H](C)[C@@H](O)[C@@H](C)[C@H](OC(C)=O)[C@@H]1C [Rifampicin]	resistant
